pEC50: −log10 of the molar value.
Experiments:
[1] = system: normal colon-derived epithelium monolayers; type: cell-based, human; details: cytokine-treated colon monolayers
[2] = system: IBD-PDO ileum epithelium monolayers; test: Barrier function assay in IBD-PDO monolayers, TEER; type: cell-based, human; details: 0.1, 2 and 10 μM pre-treatment
Procedure: (§1) (A) Transepithelial electrical resistance (TEER). (B) relative TEER value from the same transwell before treatment after 5 and 24 hours. (C) Permeability and (D) cell viability of the same Transwell after 24 hours in response to treatments. Data represented as mean±SD for 3 technical replicates. A two-way ANOVA (Dunett's multiple comparisons test) was done on normalized TEER, all conditions were compared to the pre-treatment conditions. For permeability and cell viability data a one-way ANOVA (Dunett's multiple comparisons test) was used. ****P<0.0001; ***P<0.001; **P<0.01; *P<0.1; ns, not significant.
(§2) IBD patient-derived organoid (IBD-PDO) monolayer cultures from ileum, proximal and distal colon were established following the same protocols used in previous experiments. […] Their barrier integrity was measured at 5 and 24 hours followed by LY permeability and cell viability performed (FIGS. 10, 11).

[3] = system: normal colon-derived epithelium monolayers; test: Cytokine-induced barrier injury with tofacitinib pre-treatment, Lucifer Yellow permeability assay; type: cell-based, human
[4] = system: IBD-PDO ileum epithelium monolayers; test: Barrier function assay in IBD-PDO monolayers, LY permeability; type: cell-based, human; details: 0.1, 2 and 10 μM pre-treatment
[5] = system: normal colon-derived epithelium monolayers; test: Cytokine-induced barrier injury with tofacitinib pre-treatment, TEER; type: cell-based, human
Procedure: (A) Transepithelial electrical resistance (TEER). (B) relative TEER value from the same Transwell before treatment after 5 and 24 hours. (C) Permeability and (D) Cell viability of the same Transwell after 24 hours in response to treatments. […] (E) TEER (top), permeability (middle) and cell viability (bottom) dose response curves. EC50 values were calculated by Non-linear regression log(inhibitor) versus response variable slope (four parameters) of three technical replicates.
(A) Transepithelial electrical resistance (TEER). (B) Relative TEER values from the same Transwell before treatment after 5 and 24 hours. (C) Permeability and (D) Cell viability of the same Transwell after 24 hours in response to treatments. […] An unpaired t-test was performed on permeability and cell viability data. A one-way ANOVA (Dunett's multiple comparisons test) was done on normalized TEER, permeability and cell viability data. *P<0.05, **P<0.01, ***P<0.001.
At this point, the culture medium was changed to cCDM until epithelium monolayer barrier integrity further increased (TEER >1000 Ω·cm^2). […] These measurements were normalized to the TEER value of the same Transwell before measurement, to correct for well-to-well TEER variability (FIG. 7B). Paracellular permeability was measured by the Lucifer Yellow (LY) permeability assay after 24 hours (FIG. 7C). Subsequently, monolayer cell viability was measured by the ATP Luminescent Assay, CellTiter-Glo 3D, to monitor for loss of barrier function due to cell death, as opposed to increased paracellular permeability. […] (FIG. 7D).

[6] = system: IBD-PDO ileum epithelium monolayers; test: Barrier function assay in IBD-PDO monolayers, cell viability; type: cell-based, human; details: 0.1, 2 and 10 μM pre-treatment
[7] = system: normal ileum-derived organoid epithelium monolayers; test: Cytokine-induced barrier injury with tofacitinib pre-treatment, TEER; type: cell-based, human
Procedure: (A) Transepithelial electrical resistance (TEER). (B) Relative TEER values from the same Transwell before treatment after 5 and 24 hours. (C) Permeability and (D) Cell viability of the same Transwell after 24 hours in response to treatments. Data are represented as mean±SD for 3 technical replicates. An unpaired t-test was performed on permeability and cell viability data. A one-way ANOVA (Dunett's multiple comparisons test) was done on normalized TEER, permeability and cell viability data. *P<0.05, **P<0.01, ***P<0.001.
The experimental condition above were reproduced by repeating the same experiment with same normal colon-derived epithelium monolayer and extended to normal ileum-derived organoid epithelium monolayers from the same donor, as in the previous experiment.
To address IFN-γ specificity in inducing barrier injury, TNF-α/IL-1α combination (data not shown) was included in addition to IFN-γ/TNF-α/IL-1α and IFN-γ/TNF-α.

[8] = system: IBD-PDO derived distal colon epithelium monolayers; test: Barrier function assay in IBD-PDO monolayers, cell viability; type: cell-based, human; details: 0.1, 2 and 10 μM pre-treatment
[9] = system: IBD-PDO proximal colon epithelium monolayers; test: Barrier function assay in IBD-PDO monolayers, TEER; type: cell-based, human; details: after 24 hours
Procedure: as §2

[10] = system: normal ileum-derived organoid epithelium monolayers; test: Cytokine-induced barrier injury with tofacitinib pre-treatment, LY permeability; type: cell-based, human; details: 10 μM tofacitinib, IFN-γ containing cytokine cocktails
[11] = system: IBD-PDO derived distal colon epithelium monolayers; test: Barrier function assay in IBD-PDO monolayers, LY permeability; type: cell-based, human; details: 0.1, 2 and 10 μM pre-treatment
[12] = system: IBD-PDO derived distal colon epithelium monolayers; test: Barrier function assay in IBD-PDO monolayers, TEER; type: cell-based, human; details: highest tofacitinib concentration
Procedure: as §1, with “(A-C)” for “(A)”, “(D-F)” for “(B)”, “Transwell” for “transwell”, “(G-I)” for “(C)”, “(J-L)” for “(D)”
as §2

OCT2 = target: T1, OCT2 (Homo sapiens, UniProt O15244); test: Rhodamine transport assay, kidney-C monolayers; type: cell-based; details: 1 μM, 30 mins; day 7
T1 construct: endogenous in cells; host or cells: human kidney organoid-derived monolayer (donor kidney-C)
T1 sequence (O15244 1-555): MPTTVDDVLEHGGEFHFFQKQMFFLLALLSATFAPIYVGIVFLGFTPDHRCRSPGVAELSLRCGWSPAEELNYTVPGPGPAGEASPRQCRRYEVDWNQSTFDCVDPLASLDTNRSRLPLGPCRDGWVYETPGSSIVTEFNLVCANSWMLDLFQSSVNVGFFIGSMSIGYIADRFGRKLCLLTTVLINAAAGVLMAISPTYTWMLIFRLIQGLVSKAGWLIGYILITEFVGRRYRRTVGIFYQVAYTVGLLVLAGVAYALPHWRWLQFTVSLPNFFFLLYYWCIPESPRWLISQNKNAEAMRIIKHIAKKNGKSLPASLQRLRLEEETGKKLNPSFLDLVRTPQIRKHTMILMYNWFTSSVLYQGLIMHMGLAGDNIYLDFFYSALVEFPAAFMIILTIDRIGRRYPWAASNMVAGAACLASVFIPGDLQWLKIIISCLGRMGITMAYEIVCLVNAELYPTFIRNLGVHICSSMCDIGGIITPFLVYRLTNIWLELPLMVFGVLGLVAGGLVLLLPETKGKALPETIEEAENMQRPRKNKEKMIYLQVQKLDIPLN
Procedure: FIG. 28 illustrates fluorescence measurements for accumulated intracellular Rhodamine 123 for kidney-C cultures grown in KEM media, with or without addition of 1 uM decitabine (DAC) on day 2 after seeding, in the presence or absence of PSC833 (a specific P-gp inhibitor) and decynium-22 (a specific OCT2 inhibitor). A sample incubated with PBS only (without […]) was used as a negative control. RFU, relative fluorescence units.
Rhodamine transport from the basolateral compartment into kidney monolayers grown in either the KEM or DAC conditions as described in Example 9 was measured on day 7 after seeding in the presence or absence of the P-gp inhibitor PSC-833 and/or OCT2 inhibitor Decynium-22 as follows: • 1. Remove media and rinse cells using PBS. • 2. Add fresh buffer under one of the following conditions (37° C.): • 1. 1 μM Decynium-22, 30 mins, • 2. 1 μM PSC-833, 30 mins, • 3. 1 μM Decynium-22 and 1 μM PSC-833, 30 mins, or • 4. Untreated Control, 30 mins. • 3. Add Rhodamine 123 at a final concentration 250 nM to the basolateral compartment and incubate for 30 minutes at 37° C. • 4. Analyse cellular accumulation of Rhodamine 123 using fluorescence (Excitation λ 490 nm, Emission λ 520 nm). • 5. Assess accumulation differences.

[13] = system: Human gastro-intestinal tract organoid-derived monolayers; test: Polarisation assay: TEER and Lucifer yellow permeability after apical or basolateral treatment; type: cell-based; details: eCDM; apical, basolateral or both compartments; day 3 after seeding
P-gp [14] = target: T2, P-gp (Homo sapiens, UniProt P08183); test: Calcein transport assay, kidney-C monolayers; type: cell-based; details: 1 μM, 30 mins; KEM or DAC conditions, day 7
T2 construct: endogenous in cells; host or cells: human lung organoid-derived monolayer (donor lung-C)
T2 sequence (P08183 whole entry): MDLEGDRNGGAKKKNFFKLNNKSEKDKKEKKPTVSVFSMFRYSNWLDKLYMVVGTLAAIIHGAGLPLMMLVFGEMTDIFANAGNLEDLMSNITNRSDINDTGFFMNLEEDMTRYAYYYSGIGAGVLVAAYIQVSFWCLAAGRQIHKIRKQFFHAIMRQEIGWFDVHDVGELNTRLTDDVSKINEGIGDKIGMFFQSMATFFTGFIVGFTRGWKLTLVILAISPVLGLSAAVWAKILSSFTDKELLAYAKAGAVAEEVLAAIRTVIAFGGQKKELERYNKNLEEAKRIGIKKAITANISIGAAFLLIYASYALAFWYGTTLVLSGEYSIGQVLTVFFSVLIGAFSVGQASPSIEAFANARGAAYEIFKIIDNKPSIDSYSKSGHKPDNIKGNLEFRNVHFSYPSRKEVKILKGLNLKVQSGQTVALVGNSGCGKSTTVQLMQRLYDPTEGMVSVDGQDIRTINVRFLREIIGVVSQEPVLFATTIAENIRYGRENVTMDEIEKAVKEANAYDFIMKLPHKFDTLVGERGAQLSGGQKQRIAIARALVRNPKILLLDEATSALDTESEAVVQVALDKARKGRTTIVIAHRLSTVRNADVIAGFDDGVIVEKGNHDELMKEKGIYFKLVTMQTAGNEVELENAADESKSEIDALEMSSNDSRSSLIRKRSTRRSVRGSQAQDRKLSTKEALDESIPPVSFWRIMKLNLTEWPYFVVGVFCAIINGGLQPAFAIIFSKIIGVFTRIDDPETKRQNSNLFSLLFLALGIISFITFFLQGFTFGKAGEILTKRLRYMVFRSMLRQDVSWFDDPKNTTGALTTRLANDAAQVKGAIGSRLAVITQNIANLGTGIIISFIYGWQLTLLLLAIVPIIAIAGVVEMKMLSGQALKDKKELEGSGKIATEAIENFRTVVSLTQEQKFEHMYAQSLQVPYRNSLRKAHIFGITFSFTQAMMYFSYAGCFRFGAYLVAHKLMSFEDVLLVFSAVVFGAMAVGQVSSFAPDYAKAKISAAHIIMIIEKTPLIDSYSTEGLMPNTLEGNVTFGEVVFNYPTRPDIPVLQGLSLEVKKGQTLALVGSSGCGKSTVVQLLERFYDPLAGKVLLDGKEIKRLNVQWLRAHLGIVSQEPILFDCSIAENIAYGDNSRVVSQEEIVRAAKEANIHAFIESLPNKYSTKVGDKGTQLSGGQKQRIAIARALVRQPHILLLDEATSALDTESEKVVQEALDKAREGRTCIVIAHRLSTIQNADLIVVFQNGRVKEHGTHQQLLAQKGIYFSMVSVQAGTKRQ

P-gp [15] = target: T2, P-gp; test: Calcein transport assay, pulse-chase format, lung-C monolayers; type: cell-based; details: T=2 hours
P-gp [16] = target: T2, P-gp; test: Calcein transport assay, accumulation format, lung-C monolayers; type: cell-based; details: 1 μM, 30 mins; LuM LLI and LuM ALI
P-gp [17] = target: T2, P-gp; test: Rhodamine transport assay, kidney-C monolayers; type: cell-based; details: 1 μM, 30 mins; day 7

## C[C@@H]1CCN(C(=O)CC#N)C[C@@H]1N(C)c1ncnc2[nH]ccc12 [tofacitinib]
[1]
  pre-treatment concentration that prevented cytokine induced cell death: above 3 μM
[2]
  inhibition of IFN-γ/TNF-α/IL-1α and IFN-γ/TNF-α barrier injury (TEER): inhibited by tofacitinib pre-treatment in a dose response manner
[3]; Homo sapiens, read-out: Permeability (EC50 of tofacitinib dose response, FIG. 7E), IFN-γ/TNF-α/IL-1α 1 ng/mL
  pEC50: 6.50
[3]; cytokine-treated colon monolayers
  concentration at which apparent permeability of LY was reduced: above 3 μM
[4]
  inhibition of cytokine-compromised LY permeability: inhibited by tofacitinib in a dose responsive manner
[5]; both cytokine combinations, TEER
  pre-treatment concentration that maintained barrier function integrity: above 3 μM
[5]; colon
  tofacitinib pre-treatment concentration that protected monolayers: 2 µM
[5]; highest tofacitinib concentration used
  inhibition of TNF-α/IL-1α induced barrier function injury: not inhibited by highest tofacitinib concentration used
[5]; tofacitinib 0.1 μM pre-treatment
  protection from cytokine induced barrier injury: partially protected
[5]; tofacitinib 2 μM pre-treatment
  protection from cytokine induced barrier injury: completely
[6]
  inhibition of cytokine-compromised cell viability: inhibited by tofacitinib in a dose responsive manner
[7]
  tofacitinib pre-treatment concentration that protected monolayers: 10 µM
[8]
  inhibition of cytokine-compromised cell viability: inhibited by tofacitinib in a dose responsive manner
[9]
  pre-treatment concentration with which barrier integrity damage was completely restored: higher than 0.1 μM
[10]
  LY permeability after pre-treatment: became impermeable again
[11]
  inhibition of cytokine-compromised LY permeability: inhibited by tofacitinib in a dose responsive manner
[12]
  effect on TNF-α/IL-1α reduced barrier function integrity: not inhibited or restored with highest tofacitinib concentration
[12]; 5 hours
  inhibition of induced damage (TEER): not completely inhibited even with highest tofacitinib concentration
[12]; 24 hours
  restoration of induced damage (TEER): restored after 24 hours

## CCN1/C(=C/c2ccc3ccccc3[n+]2CC)C=Cc2ccccc21.[I-] [Decynium-22]
OCT2
  cellular accumulation of Rhodamine: decreased accumulation

## COc1cc2ncnc(Nc3ccc(F)c(Cl)c3)c2cc1OCCCN1CCOCC1 [Gefitinib]
[13]
  integrity of organoid-derived epithelial monolayers (TEER, Lucifer yellow permeability): compromised only when Gefitinib is added to the basolateral compartment

## C/C=C/C[C@@H](C)C(=O)[C@H]1C(=O)N[C@@H](C(C)C)C(=O)N(C)CC(=O)N(C)[C@@H](CC(C)C)C(=O)N[C@@H](C(C)C)C(=O)N(C)[C@@H](CC(C)C)C(=O)N[C@@H](C)C(=O)N[C@H](C)C(=O)N(C)[C@@H](CC(C)C)C(=O)N(C)[C@@H](CC(C)C)C(=O)N(C)[C@@H](C(C)C)C(=O)N1C [PSC833]
P-gp [14]
  cellular accumulation of Calcein AM: Increased cellular accumulation of Calcein AM
P-gp [15]
  Calcein AM accumulation or efflux: did not show notable effects on Calcein AM accumulation or efflux
P-gp [16]
  cellular accumulation of Calcein AM: Increased cellular accumulation of Calcein AM
P-gp [17]
  cellular accumulation of Rhodamine: Increased cellular accumulation of Rhodamine
